Assay results as given in patent publication US20250152605A1, “METHOD AND DRUG FOR TREATING NEURONAL CEROID LIPOFUSCINOSIS” (priority 2021, published 2025).
Where a name gives a salt, the structure may show the parent alone.

Legend:
[1] = tested on: CLN3^Δex7/8 human neurons; assay: Lysotracker staining of CLN3^Δex7/8 human neurons, flow cytometry; assay type: cell-based
Description: In analyzing the mean fluorescence intensity of neural stem cells and neuronal staining or single cell establishment of NRK cells, flow cytometry was used: the cell medium was aspirated off, after wash with dPBS once, the digestive enzyme corresponding to the cell type was added to digest into single cells; the supernatant was removed by centrifugation, and the cells were resuspended with 1 mL of fresh medium; the cell suspension with filtered through 40 μm filter membrane and the single cell filtrate was collected; the single cell filtrate was transferred to a flow tube and analyzed or sorted using BD FACS Aria III; in the analysis, the fluorescence intensity of 1×10^4 cells for each sample was analyzed to obtain the mean fluorescence intensity (MFI); for sorting, cells were received in 96 well plates with medium, one cell per well to establish a cell line.
Studies above have shown that CLN3^Δex7/8 human neurons feature lysosomal acidity dysregulation. To investigate the effect of Compound G on lysosomal acidity in CLN3^Δex7/8 neurons, Lysotracker dye was used for staining and flow cytometry was used for analyzing the fluorescence intensity of Lysotracker dye in cells.

SCMAS protein = SCMAS protein storage in neurons (immunofluorescence staining and western blot); assay type: cell-based, human; conditions: CLN3^Δex7/8 neurons
Description: Sample preparation: for adherent cultured cells, exemplified by cells cultured in a six-well cell plate, the cell medium was aspirated and the cells were washed once with dPBS. About 100 μL of RIPA lysate (50 mM Tris-HCl, pH 7.5, 150 mM NaCl, 0.25% Na-deoxycholate, 0.1% NP-40, 0.1% Triton X-100) containing protease inhibitors and phosphatase inhibitors was added to each well. The cell lysate was scraped off completely with a cell scraper and collected into 1.5 mL EP tubes. Lysis was continued for 30 minutes on ice. For animal tissue, the weight of the animal tissue was weighed, and RIPA lysate containing protease inhibitors and phosphatase inhibitors was added with five times the volume of the animal tissue. The tissue was grinded on ice with a tissue grinder until there is no obvious tissue mass, collected into 1.5 mL EP tubes, and placed on ice for further lysis for 30 min. […]

NRK cells = assay: Lysotracker staining of NRK cells, flow cytometry; assay type: cell-based, rat
Excerpt: The impact of increased p62 protein levels on the cellular lysosomal functions was detected: GFP-p62 proteins and GFP proteins of the control group were overexpressed in NRK cells, and Lysotracker dye was used to detect the acidity of lysosomes in GFP-positive cells.

[2] = tested on: BFP-LC3 stably expressing NRK cells; assay: Lysotracker staining of BFP-LC3 stably expressing NRK cells; assay type: cell-based, rat; conditions: treatment for 18 hours, compared with control cells
Description: Moreover, after treating BFP-LC3 stably expressing NRK cells with these seven small molecule compounds for 18 hours, staining with Lysotracker dye was performed.

SMILES | Lysotracker fluorescence intensity in CLN3^Δex7/8 human neurons [1] | abnormal storage of SCMAS protein (SCMAS protein) | intracellular lysosomal acidity (Lysotracker) (NRK cells) | intracellular Lysotracker staining (lysosomal acidity) [2]
COC(=O)/C=C/C(=O)OC [DMF, dimethyl fumarate, reference compound] | significantly increased | significantly reduced | significantly increase the intracellular lysosomal acidity | 
CO/C1=C\C(C)=C\[C@@H](C)[C@@H](O)[C@@H](C)C/C(C)=C/C=C/[C@H](OC)[C@@H]([C@@H](C)[C@@H](O)[C@H](C)[C@@]2(O)C[C@@H](O)[C@H](C)[C@@H](C(C)C)O2)OC1=O [Baf-A1, bafilomycin A1] |  |  |  | significant decrease in lysosomal acidity
